What was measured:
[1] = test system: neutrophilic polynuclear cells labeled with anti-CD45 antibody conjugated with APC tandem; experiment: percentage of decoupling of APC tandem on immunolabeled neutrophilic polynuclear cells by flow cytometry; format: cell-based, human
Source text: (§1) The terms “percentage of decoupling”, “% decoupling”, “% decoupling APC vs APC-Cy7”, “% decoupling APC vs APC-H7” are used in the preceding text and in the text which follows and in the accompanying figures to denote the ratio:
(§2) [Number of cells which, although having been labeled with an APC tandem, emit fluorescence into the APC channel (and not into the channel of the APC tandem used)]/[total number of cells which have been labeled with the APC tandem, regardless of the channel into which they emit],
(§3) this ratio being multiplied by 100.
(§4) For each immunolabeling experiment, the cells were mixed and subjected to flow cytometry analysis on a Becton Dickinson FACSCanto II apparatus. From 10,000 to 50,000 events were acquired per test. The singlet cells were selected by a commonly used cell sorting procedure: intersection of the three windows (P1, P2 and P3) of the biparametric histograms.
(§5) For each type of cells, the percentage of decoupling was calculated as previously described using the BD […] software.
(§6) The results are represented in FIGS. 25 and 26.

[2] = test system: lymphocytes labeled with anti-CD45 antibody conjugated with APC tandem; experiment: percentage of decoupling of APC tandem on immunolabeled lymphocytes by flow cytometry; format: cell-based, human
Protocol: The positivity threshold was determined in the APC channel at the time T0 and related to the time T30. The percentage of “decoupled” cells was expressed as the ratio of the total number of both APC- and APC tandem-positive cells to the total APC tandem-positive lymphocytes.

[3] = decoupling / signal impairment of APC tandem attached to beads (no cells)
Source text: For that, they analyzed the stability of the APC tandem fluorochromes attached to lymphocytes and compared it to the stability of these same APC tandems attached to beads. This comparison makes it possible to determine whether or not it is the APC tandem which is degraded, regardless of the context in which it is used, or if the APC tandem is only degraded in the presence of cells.
The beads used in these experiments were beads Compbeads® from Becton Dickinson.
The lymphocytes, like the beads, were labeled with anti-CD45 antibodies conjugated with the APC-Cy7 tandem fluorochrome or with the APC-H7 tandem fluorochrome.

monocytes = test system: monocytes
Protocol: (§7) Aliquots of human peripheral blood (containing 500,000 leukocytes) were incubated in the lysis buffer and then washed three times with 1×PBS supplemented with 2.5% FBS. The cells (500,000) were then immuno-labeled with 5 μl of each of the desired antibodies conjugated either with the desired APC tandem or with APC alone in 100 μl of incubation buffer for 20 min at room temperature, and washed three times with the PBS/FBS solution and resuspended in 200 μl of PBS/FBS solution.
(§8) The dead cells were labeled for their exclusion during analysis of the data acquired by flow cytometry using the intercalating agent 7-aminoactinomycin-D (7-AAD) from SIGMA-ALDRICH.

[4] = test system: neutrophilic polynuclear cells
Protocol: as §7, §8

[5] = test system: monocytes labeled with anti-CD45 antibody conjugated with APC tandem; experiment: percentage of decoupling of APC tandem on immunolabeled monocytes by flow cytometry; format: cell-based, human
Source text: as §1, §2, §3, §4, §5, §6

cells = experiment: toxicity to cells at the concentrations used; format: cell-based
lymphocytes = experiment: viability and morphology of lymphocytes; format: cell-based, human
[6] = neutrophilic polynuclear cells, H2O2

## OO [H2O2, hydrogen peroxide]
[1]; [6]
  effect on decoupling compared with lymphocytes: comparable role
[2]; anti-CD45 APC-Cy7, 0.01 mM H2O2, 20 to 60 minutes
  effect on percentage of decoupling: does not modify
[2]; anti-CD45 APC-Cy7, 0.1 mM H2O2, 20 to 60 minutes
  effect on percentage of decoupling: increased
[3]; beads, over time, H2O2
  decoupling of antibodies conjugated with APC-Cy7 attached to beads: could induce the decoupling
monocytes; H2O2
  effect on viability of the cells: without any effect on the viability
[4]; [6]
  effect on viability of the cells: without any effect on the viability
[5]; H2O2
  effect on decoupling compared with lymphocytes: comparable role

## [N-]=[N+]=[N-] [NaN3, sodium azide]
monocytes; NaN3
  effect on cell viability: without affecting cell viability
[4]; neutrophilic polynuclear leukocytes, NaN3
  effect on cell viability: without affecting cell viability

## O=C1O[C@H]([C@@H](O)CO)C(O)=C1O [vitamin C, L-ascorbic acid]
[1]; neutrophilic polynuclear cells
  concentration at which a sufficient decrease of the percentage of decoupling is obtained: 0.25 mM
  concentration up to which the decrease of decoupling exists: ≤ 10 mM
[1]; neutrophilic polynuclear leukocytes, anti-CD45 APC-Cy7, 1 mM vitamin C, room temperature, monitored 1 hour
  effect on percentage of decoupling over time: strongly inhibits
cells
  toxicity to cells: not toxic to cells
[2]; anti-CD45 APC-Cy7, 1 mM vitamin C, room temperature, monitored 1 hour
  effect on percentage of decoupling over time: strongly inhibits
[2]; vitamin C 0.1 mM
  effect on percentage of decoupling: only a reduced effect
[3]; beads Compbeads, H2O2 0 to 1 mM, 1 mM vitamin C
  effect on impairment of the APC tandem signal caused by H2O2: blocks the impairment of the signal
monocytes
  concentration above which viability and morphology are modified: > 10 mM
[4]; neutrophilic polynuclear cells
  concentration above which cells begin to undergo a decrease in viability: Above 10 mM
  concentration above which cells begin to undergo morphological impairment: Above 4 mM
[5]
  concentration at which a sufficient decrease of the percentage of decoupling appears: 1 mM
  concentration up to which the decrease of decoupling exists: ≤ 10 mM
lymphocytes
  concentration above which morphology and viability are modified: above 10 mM

Reference: patent US20090258385A1, “METHOD OF ANALYZING CELLS BY FLOW CYTOMETRY, USE OF AN ANTIOXIDANT AND/OR FREE RADICAL-SCAVENGING AGENT IN SUCH A METHOD AND INCUBATION BUFFER COMPRISING AN ANTIOXIDANT AND/OR FREE RADICAL-SCAVENGING AGENT” (Hopitaux de Paris, priority 2008, published 2009)
